Measurements: the NIST ThermoML archive (doi:10.1021/je050305z)

Conditions: Gas, Hot wire method

COC [dimethyl ether]
Conditions	thermal conductivity [W/m/K]
266.62 K, 148.1 kPa	0.01348
267.77 K, 148.1 kPa	0.01359
268.94 K, 148.1 kPa	0.01363
276.2 K, 155.8 kPa	0.01468
276.2 K, 207.5 kPa	0.01475
277.09 K, 207.5 kPa	0.01483
277.12 K, 155.8 kPa	0.01476
278.14 K, 155.8 kPa	0.01482
278.17 K, 207.5 kPa	0.01489
285.91 K, 253.2 kPa	0.01594
286.05 K, 144.6 kPa	0.01592
286.67 K, 253.2 kPa	0.016
286.89 K, 144.6 kPa	0.01605
287.68 K, 253.2 kPa	0.01614
287.99 K, 144.6 kPa	0.01606
295.96 K, 253.2 kPa	0.01725
296.02 K, 352.9 kPa	0.01726
296.03 K, 154.5 kPa	0.01715
296.69 K, 352.9 kPa	0.01736
296.76 K, 253.2 kPa	0.01733
296.8 K, 154.5 kPa	0.01728
297.39 K, 352.9 kPa	0.0174
297.64 K, 253.2 kPa	0.01739
297.76 K, 154.5 kPa	0.01734
305.64 K, 155.2 kPa	0.01827
305.64 K, 502.4 kPa	0.01848
305.8 K, 352.8 kPa	0.01842
306.69 K, 155.2 kPa	0.01839
306.69 K, 502.4 kPa	0.01861
306.8 K, 352.8 kPa	0.01854
307.53 K, 155.2 kPa	0.01852
307.53 K, 502.4 kPa	0.01872
307.82 K, 352.8 kPa	0.01861
315.68 K, 496.3 kPa	0.01958
315.77 K, 348.9 kPa	0.01952
316.05 K, 153.9 kPa	0.01955
316.35 K, 700.4 kPa	0.02006
316.55 K, 496.3 kPa	0.01971
316.56 K, 700.4 kPa	0.01992
316.75 K, 348.9 kPa	0.01967
317.06 K, 153.9 kPa	0.01957
317.2 K, 700.4 kPa	0.01999
317.63 K, 496.3 kPa	0.01983
317.81 K, 348.9 kPa	0.01977
318.26 K, 153.9 kPa	0.01971
325.16 K, 1120.2 kPa	0.02135
325.31 K, 883.7 kPa	0.02119
325.41 K, 701.6 kPa	0.02104
325.53 K, 500.8 kPa	0.02091
325.64 K, 348 kPa	0.0208
325.83 K, 151.5 kPa	0.02082
325.88 K, 1120.2 kPa	0.02135
326.11 K, 883.7 kPa	0.02133
326.2 K, 701.6 kPa	0.02113
326.36 K, 500.8 kPa	0.021
326.53 K, 348 kPa	0.02093
326.73 K, 1120.2 kPa	0.02156
326.79 K, 151.5 kPa	0.02087
326.99 K, 883.7 kPa	0.02145
327.16 K, 701.6 kPa	0.02125
327.38 K, 500.8 kPa	0.02116
327.53 K, 348 kPa	0.02098
327.88 K, 151.5 kPa	0.02094
335.18 K, 1196.9 kPa	0.02256
335.35 K, 898.7 kPa	0.02238
335.43 K, 705.2 kPa	0.02212
335.48 K, 353.4 kPa	0.02197
335.54 K, 505.2 kPa	0.02204
335.66 K, 152.2 kPa	0.02198
335.88 K, 1196.9 kPa	0.02272
336.11 K, 898.7 kPa	0.02244
336.23 K, 705.2 kPa	0.02226
336.32 K, 353.4 kPa	0.02209
336.37 K, 505.2 kPa	0.02217
336.45 K, 1196.9 kPa	0.0228
336.55 K, 152.2 kPa	0.02211
336.74 K, 898.7 kPa	0.0225
336.91 K, 705.2 kPa	0.02231
337.06 K, 505.2 kPa	0.02229
337.25 K, 353.4 kPa	0.02223
337.54 K, 152.2 kPa	0.02207
345.11 K, 1503.9 kPa	0.02418
345.23 K, 1200.4 kPa	0.0239
345.35 K, 897.3 kPa	0.02352
345.47 K, 700 kPa	0.02344
345.57 K, 502.5 kPa	0.02341
345.59 K, 1503.9 kPa	0.02427
345.67 K, 352.7 kPa	0.02338
345.74 K, 1200.4 kPa	0.02399
345.88 K, 154.3 kPa	0.02322
345.9 K, 897.3 kPa	0.02363
346.03 K, 700 kPa	0.0235
346.12 K, 1503.9 kPa	0.0244
346.15 K, 502.5 kPa	0.02351
346.26 K, 352.7 kPa	0.0234
346.29 K, 1200.4 kPa	0.02408
346.49 K, 897.3 kPa	0.02372
346.52 K, 154.3 kPa	0.02324
346.64 K, 700 kPa	0.02364
346.82 K, 502.5 kPa	0.02361
346.93 K, 352.7 kPa	0.0235
347.27 K, 154.3 kPa	0.02327
354.82 K, 2226 kPa	0.02637
355.11 K, 1777.8 kPa	0.02567
355.2 K, 1497.3 kPa	0.02536
355.22 K, 2226 kPa	0.02653
355.33 K, 1194.9 kPa	0.02506
355.47 K, 872.5 kPa	0.02483
355.55 K, 701.6 kPa	0.02472
355.58 K, 1777.8 kPa	0.02592
355.64 K, 504.3 kPa	0.02468
355.66 K, 2226 kPa	0.02632
355.69 K, 1497.3 kPa	0.02553
355.74 K, 356.1 kPa	0.02462
355.82 K, 1194.9 kPa	0.02508
355.89 K, 156.1 kPa	0.02441
355.97 K, 872.5 kPa	0.02489
356.09 K, 1777.8 kPa	0.02597
356.1 K, 701.6 kPa	0.02489
356.2 K, 504.3 kPa	0.02488
356.21 K, 1497.3 kPa	0.02554
356.31 K, 356.1 kPa	0.02481
356.38 K, 1194.9 kPa	0.02516
356.52 K, 156.1 kPa	0.02447
356.57 K, 872.5 kPa	0.02502
356.72 K, 701.6 kPa	0.0249
356.86 K, 504.3 kPa	0.02485
356.98 K, 356.1 kPa	0.02475
357.23 K, 156.1 kPa	0.02456
364.94 K, 2198.1 kPa	0.02782
365.09 K, 1801.9 kPa	0.02689
365.2 K, 1500.1 kPa	0.0265
365.3 K, 1202 kPa	0.02622
365.42 K, 906.2 kPa	0.02606
365.51 K, 697.2 kPa	0.02598
365.51 K, 2198.1 kPa	0.02789
365.59 K, 481.6 kPa	0.026
365.68 K, 346.3 kPa	0.02589
365.7 K, 1801.9 kPa	0.0271
365.81 K, 1500.1 kPa	0.02669
365.86 K, 156.4 kPa	0.02596
365.94 K, 1202 kPa	0.02635
365.99 K, 2198.1 kPa	0.02796
366.1 K, 906.2 kPa	0.02615
366.2 K, 697.2 kPa	0.02609
366.23 K, 1801.9 kPa	0.02723
366.31 K, 481.6 kPa	0.02599
366.35 K, 1500.1 kPa	0.02675
366.42 K, 346.3 kPa	0.02597
366.52 K, 1202 kPa	0.02642
366.66 K, 156.4 kPa	0.02591
366.7 K, 906.2 kPa	0.02622
366.82 K, 697.2 kPa	0.02608
366.96 K, 481.6 kPa	0.02612
367.09 K, 346.3 kPa	0.02604
367.38 K, 156.4 kPa	0.02597
374.95 K, 2704.4 kPa	0.03029
375.17 K, 2197.8 kPa	0.02893
375.29 K, 1766.8 kPa	0.02826
375.36 K, 1499.6 kPa	0.02784
375.46 K, 892.8 kPa	0.02733
375.49 K, 1198.6 kPa	0.02756
375.49 K, 2704.4 kPa	0.03041
375.54 K, 707.6 kPa	0.02738
375.63 K, 507.4 kPa	0.02734
375.72 K, 354 kPa	0.02727
375.76 K, 2197.8 kPa	0.0291
375.9 K, 152.4 kPa	0.02713
375.92 K, 1766.8 kPa	0.02831
375.95 K, 2704.4 kPa	0.03051
375.97 K, 1499.6 kPa	0.02793
376.14 K, 892.8 kPa	0.02756
376.17 K, 1198.6 kPa	0.0277
376.22 K, 707.6 kPa	0.02749
376.28 K, 2197.8 kPa	0.02917
376.35 K, 507.4 kPa	0.02737
376.45 K, 354 kPa	0.02739
376.46 K, 1766.8 kPa	0.02837
376.56 K, 1499.6 kPa	0.02791
376.68 K, 152.4 kPa	0.02726
376.72 K, 892.8 kPa	0.02758
376.75 K, 1198.6 kPa	0.02773
376.81 K, 707.6 kPa	0.02751
376.96 K, 507.4 kPa	0.0274
377.08 K, 354 kPa	0.02742
377.4 K, 152.4 kPa	0.0273
384.94 K, 3297.7 kPa	0.03329
385.16 K, 2700.7 kPa	0.03115
385.35 K, 2197 kPa	0.02995
385.44 K, 3297.7 kPa	0.03354
385.48 K, 1805.7 kPa	0.02946
385.56 K, 1500.6 kPa	0.02919
385.66 K, 1201.3 kPa	0.02897
385.74 K, 2700.7 kPa	0.03126
385.77 K, 899.9 kPa	0.02885
385.93 K, 503.9 kPa	0.02857
385.95 K, 703 kPa	0.0288
385.98 K, 2197 kPa	0.0301
386 K, 3297.7 kPa	0.03358
386.01 K, 355.6 kPa	0.02861
386.13 K, 1805.7 kPa	0.02959
386.2 K, 156.6 kPa	0.02852
386.22 K, 1500.6 kPa	0.02926
386.33 K, 1201.3 kPa	0.02917
386.38 K, 2700.7 kPa	0.03136
386.48 K, 899.9 kPa	0.02895
386.5 K, 2197 kPa	0.03017
386.6 K, 703 kPa	0.02886
386.65 K, 503.9 kPa	0.02873
386.65 K, 1805.7 kPa	0.02964
386.74 K, 1500.6 kPa	0.02936
386.79 K, 355.6 kPa	0.02867
386.93 K, 1201.3 kPa	0.02916
387.03 K, 156.6 kPa	0.02858
387.08 K, 899.9 kPa	0.02903
387.21 K, 703 kPa	0.02901
387.32 K, 503.9 kPa	0.02881
387.44 K, 355.6 kPa	0.02881
387.74 K, 156.6 kPa	0.02859

N#N [nitrogen]
Conditions	thermal conductivity [W/m/K]
235.41 K, 3405.4 kPa	0.02334
235.72 K, 3405.4 kPa	0.02333
255.55 K, 5432.8 kPa	0.026
255.7 K, 1281.1 kPa	0.02332
255.86 K, 5432.8 kPa	0.02596
256.26 K, 1281.1 kPa	0.02323
275.39 K, 5057.3 kPa	0.02674
275.41 K, 1027.7 kPa	0.02441
276.05 K, 5057.3 kPa	0.0269
276.11 K, 1027.7 kPa	0.02435
295.15 K, 1844.1 kPa	0.02606
295.25 K, 4380.8 kPa	0.02731
295.68 K, 1844.1 kPa	0.02599
295.92 K, 4380.8 kPa	0.02738
325.32 K, 716 kPa	0.02758
325.43 K, 2042.9 kPa	0.02842
326.2 K, 2042.9 kPa	0.02845
326.23 K, 4941.8 kPa	0.02961
326.39 K, 716 kPa	0.02763
